Measurements: patent US12612411B1, “Imidazopyrazine derivatives, process for preparation thereof, and their uses as luciferins” (INSTITUT PASTEUR, priority 2017, dated 2026)

Assays:
[1] = cited from earlier work
nanoKAZ luciferase = biological target: T1, nanoKAZ luciferase (Oplophorus gracilirostris, UniProt Q9GV45, A31E/A60N/A81I/F95D/I117V/K70R/L54V/L99Q/M102K/N193R/P142E/Q151K/Q38R/Q45L/V71I/Y165I); assay: In vitro bioluminescence screening of imidazo[1,2-a]pyrazin-3(7H)-ones with nanoKAZ expressed in vitro (96-well luminometer, 2 h kinetic); assay type: biochemical; details: furimazine = 1
T1 construct: luciferase catalytic domain (nanoKAZ, 19 kDa) from the Oplophorus-derived luciferase; host or cells: cell-free: 1-Step Human Coupled IVT Kit, pT7CFE1-based vector
T1 sequence (Q9GV45 other isoform, or with tags, fused parts or gaps with the stated changes): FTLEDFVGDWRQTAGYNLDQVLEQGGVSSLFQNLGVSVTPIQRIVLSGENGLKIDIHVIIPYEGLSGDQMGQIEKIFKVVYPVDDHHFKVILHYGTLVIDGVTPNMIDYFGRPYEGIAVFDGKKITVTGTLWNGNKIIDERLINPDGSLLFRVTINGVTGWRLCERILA
Procedure: General protocol for the generation of solutions of imidazo[1,2-a]pyrazin-3(7H)-one Q by acidic hydrolysis of imidazo[1,2-a]pyrazin-3-yl acetate derivatives P. The considered acetate P (1 mg) was dissolved in DMSO (0.2 mL) and then diluted by adding a solution of acidic ethanol (0.3 ml) made from the addition of 37% hydrochloric acid (100 μl) on 100% ethanol (12 mL). This 0.5 mL solution was incubated at 50° C. for 2 hours to give a stock solution which was then stored at −80° C. […] Nota: these conditions are only adapted to the hydrolysis of the protecting group (as defined above) of the oxygen on position 2 of the imidazo[1,2-a]pyrazine ring system and not to the hydrolysis of any additional acetyl groups eventually present elsewhere on the substrate of this reaction.
The representative bioluminescence curves shown in the FIG. 2 provided an assessment for furimazine (Q-1), 8-benzyl-2-(furan-2-ylmethyl)-6-(4-hydroxyphenyl)imidazo[1,2-a]pyrazin-3 (7/1)-one (Q-80), 8-(2-fluorobenzyl)-2-(furan-2-ylmethyl)-6-phenylimidazo[1,2-a]pyrazin-3(7H)-one (Q-84), and 8-(2-fluorobenzyl)-2-((5-methylfuran-2-yl)methyl)-6-phenylimidazo[1,2-a]pyrazin-3(7H)-one (Q-85) was obtained using a luciferase expressed in vitro as described in the following. The nanoKAZ DNA template was cloned into Thermo Scientific pT7CFE1-based vector and nanoKAZ was expressed using ThermoFisher Scientific 1-Step Human Coupled IVT Kit—DNA (ref. 88881) according to the manufacturer instructions. The resulting reaction mix was diluted 400 times in buffer (DPBS (Gibco)+0.1% (v/v) Tween 20) and conserved at −80° C. The screening of the imidazo[1,2-a]pyrazin-3(7H)-ones was performed in 96 well plates using 50 μL/well of a 1/20 dilution in DPBS (Gibco)+0.1% (v/v) Tween 20 of the nanoKAZ solution.
To illustrate the bioluminescence properties improvement achieved for many of the imidazo[1,2-a]pyrazin-3(7H)-ones described here, four values are provided in Table 1: maximum intensity (V1), signal half-life (V2), area under the curve for ten minutes (V3), and area under the curve for two hours (V4), normalized using furimazine (Q-1) as a reference.
The bioluminescence properties of the tested compounds are considered to be improved when at least one of the values V1-V4 is above 1, and when none of the V1-V4 values is 0.05 or below.
By following the hydrolysis protocol described above, the following imidazo[1,2-a]pyrazin-3(7H)-ones luciferins Q were made in situ from the corresponding O-protected imidazo[1,2-a]pyrazines P and evaluated for their bioluminescence properties (maximum intensity (V1), signal half-life (V2), area under the curve for […], normalized using furimazine (Q-1) as a reference): […]

[2] = second table, luciferins made in situ from O-protected P

O=c1c(Cc2ccc(O)cc2)nc2c(Cc3ccccc3)[nH]c(-c3ccc(O)cc3)cn1-2 [Q-86, 8-benzyl-2-(4-hydroxybenzyl)-6-(4-hydroxyphenyl)imidazo[1,2-a]pyrazin-3(7H)-one, reference compound]
storage stability ([1]; commercially available luciferins): very weak storage stability | permitted storage time at 4° C. ([1]; recommended storage conditions): up to two weeks only | V1: maximum intensity, normalized using furimazine (Q-1) as a reference (nanoKAZ luciferase; Table 1): 0.09 | V3: area under the curve for ten minutes, normalized using furimazine (Q-1) as a reference (nanoKAZ luciferase; Table 1): 0.08 | V4: area under the curve for two hours, normalized using furimazine (Q-1) as a reference (nanoKAZ luciferase; Table 1): 0.07

Cc1cc(Cc2nc3c(Cc4cccc(F)c4F)[nH]c(-c4ccccc4)cn-3c2=O)oc1C [Q-124, 8-(2,3-difluorobenzyl)-2-((4,5-dimethylfuran-2-yl)methyl)-6-phenylimidazo[1,2-a]pyrazin-3(7H)-one]
V3: area under the curve for 2 hours, normalized using furimazine (Q-1) as a reference (nanoKAZ luciferase; second table): 2.29 | V4: area under the curve for ten minutes, normalized using furimazine (Q-1) as a reference (nanoKAZ luciferase; second table): 1.03 | V1: maximum intensity, normalized using furimazine (Q-1) as a reference (nanoKAZ luciferase; [2]): 2.43

CCc1ccc(Cc2nc3c(Cc4cccc(F)c4F)[nH]c(-c4ccccc4)cn-3c2=O)o1 [Q-127, 8-(2,3-difluorobenzyl)-2-((5-ethylfuran-2-yl)methyl)-6-phenylimidazo[1,2-a]pyrazin-3(7H)-one]
V3: area under the curve for 2 hours, normalized using furimazine (Q-1) as a reference (nanoKAZ luciferase; second table): 2.69 | V4: area under the curve for ten minutes, normalized using furimazine (Q-1) as a reference (nanoKAZ luciferase; second table): 1.55 | V1: maximum intensity, normalized using furimazine (Q-1) as a reference (nanoKAZ luciferase; [2]): 2.81

CCc1ccc(Cc2nc3c(Cc4c(F)cccc4F)[nH]c(-c4ccccc4)cn-3c2=O)o1 [Q-129, 8-(2,6-difluorobenzyl)-2-((5-ethylfuran-2-yl)methyl)-6-phenylimidazo[1,2-a]pyrazin-3(7H)-one]
V3: area under the curve for 2 hours, normalized using furimazine (Q-1) as a reference (nanoKAZ luciferase; second table): 1.37 | V4: area under the curve for ten minutes, normalized using furimazine (Q-1) as a reference (nanoKAZ luciferase; second table): 1.32 | V1: maximum intensity, normalized using furimazine (Q-1) as a reference (nanoKAZ luciferase; [2]): 1.41

Cc1cc(Cc2nc3c(Cc4ccccc4F)[nH]c(-c4ccccc4)cn-3c2=O)oc1C [Q-131, 2-((4,5-dimethylfuran-2-yl)methyl)-8-(2-fluorobenzyl)-6-phenylimidazo[1,2-a]pyrazin-3(7H)-one]
V3: area under the curve for 2 hours, normalized using furimazine (Q-1) as a reference (nanoKAZ luciferase; second table): 1.9 | V4: area under the curve for ten minutes, normalized using furimazine (Q-1) as a reference (nanoKAZ luciferase; second table): 1.02 | V1: maximum intensity, normalized using furimazine (Q-1) as a reference (nanoKAZ luciferase; [2]): 2.01

Cc1cc(Cc2nc3c(Cc4cccc(F)c4)[nH]c(-c4ccccc4)cn-3c2=O)oc1C [Q-132, 2-((4,5-dimethylfuran-2-yl)methyl)-8-(3-fluorobenzyl)-6-phenylimidazo[1,2-a]pyrazin-3(7H)-one]
V3: area under the curve for 2 hours, normalized using furimazine (Q-1) as a reference (nanoKAZ luciferase; second table): 1.44 | V4: area under the curve for ten minutes, normalized using furimazine (Q-1) as a reference (nanoKAZ luciferase; second table): 1 | V1: maximum intensity, normalized using furimazine (Q-1) as a reference (nanoKAZ luciferase; [2]): 1.5

CCCc1ccc(Cc2nc3c(Cc4ccccc4)[nH]c(-c4ccccc4)cn-3c2=O)o1 [Q-133, 8-benzyl-6-phenyl-2-((5-propylfuran-2-yl)methyl)imidazo[1,2-a]pyrazin-3(7H)-one]
V3: area under the curve for 2 hours, normalized using furimazine (Q-1) as a reference (nanoKAZ luciferase; second table): 1.23 | V4: area under the curve for ten minutes, normalized using furimazine (Q-1) as a reference (nanoKAZ luciferase; second table): 1.33 | V1: maximum intensity, normalized using furimazine (Q-1) as a reference (nanoKAZ luciferase; [2]): 1.26

CCc1cc(Cc2nc3c(Cc4cccc(F)c4F)[nH]c(-c4ccccc4)cn-3c2=O)oc1C [Q-135, 8-(2,3-difluorobenzyl)-2-((4-ethyl-5-methylfuran-2-yl)methyl)-6-phenylimidazo[1,2-a]pyrazin-3(7H)-one]
V3: area under the curve for 2 hours, normalized using furimazine (Q-1) as a reference (nanoKAZ luciferase; second table): 0.51 | V4: area under the curve for ten minutes, normalized using furimazine (Q-1) as a reference (nanoKAZ luciferase; second table): 1.19 | V1: maximum intensity, normalized using furimazine (Q-1) as a reference (nanoKAZ luciferase; [2]): 1.26

CCc1oc(Cc2nc3c(Cc4cccc(F)c4F)[nH]c(-c4ccccc4)cn-3c2=O)cc1C [Q-143, 8-(2,3-difluorobenzyl)-2-((5-ethyl-4-methylfuran-2-yl)methyl)-6-phenylimidazo[1,2-a]pyrazin-3(7H)-one]
V3: area under the curve for 2 hours, normalized using furimazine (Q-1) as a reference (nanoKAZ luciferase; second table): 0.39 | V4: area under the curve for ten minutes, normalized using furimazine (Q-1) as a reference (nanoKAZ luciferase; second table): 1.34 | V1: maximum intensity, normalized using furimazine (Q-1) as a reference (nanoKAZ luciferase; [2]): 1.43

O=c1c(Cc2ccco2)nc2c(Cc3ccccc3)[nH]c(-c3cccc(O)c3)cn1-2 [Q-149, 8-benzyl-2-(furan-2-ylmethyl)-6-(3-hydroxyphenyl)imidazo[1,2-a]pyrazin-3(7H)-one]
V3: area under the curve for 2 hours, normalized using furimazine (Q-1) as a reference (nanoKAZ luciferase; second table): 0.85 | V4: area under the curve for ten minutes, normalized using furimazine (Q-1) as a reference (nanoKAZ luciferase; second table): 1.05 | V1: maximum intensity, normalized using furimazine (Q-1) as a reference (nanoKAZ luciferase; [2]): 1.12
